Patent US9248202B2, “Two-photon probe for detecting copper(II) ion and quantitative estimation of copper(II) ion in human tissue using the same” (Korea University Research and Business Foundation, priority 2014, dated 2016)

What was measured:
HeLa cells [1] = experiment: Photostability in labeled HeLa cells; type: cell-based, human; set-up: dose or concentration left out as unconfirmed; conditions: ACCu2-labeled HeLa cells, fs-pulses for 60 minutes
Description: The photostability of ACCu2 was determined by monitoring the change in TP excited fluorescence (TPEF) intensity from ACCu2 ([…])-labeled HeLa cells. […] This confirms that ACCu2 according to the present disclosure has high photostability and can measure the copper(II) ion concentration in living cells with minimum interference.

[2] = Two-photon action cross section; type: physicochemical; conditions: at 880 nm, EtOH/HEPES (9/1 v/v, pH 7.0)
Description: Referring to FIG. 4(a), the Φδmax value of ACCu2 in EtOH/HEPES (9/1 v/v, pH 7.0) buffer was 32 GM at 880 nm, while those for FL and IR were 32 GM at 880 nm and 46 GM at 750 nm. The lower Φδmax value of ACCu2 at 750 nm than that of IR is because of decreased fluorescence resonance energy transfer (FRET) from IR to FL and it allows to obtain bright TPM images of cells and ^.tissues labeled with ACCu2.
The two-photon cross section (δ) was determined by the fe tosecond (fs) fluorescence measurement technique described in the literature (S. K. Lee, W. J. Yang, J. J. Choi, C. H. Kim, S.-J. Jeon, B. R. Cho, Org. Lett 2005, 7, 323-326.), ACCu2 was dissolved in 20 mM HEPES buffer (pH 7.0) to a concentration of 3.0×10^−6 M and then two-photon induced fluorescence intensity was measured at 740-940 nm using rhodamine 6G as a reference, whose two-photon property has been well characterized. The intensities of two-photon induced fluorescence of the reference and the sample were determined at the same excitation wavelength.
The two-photon cross section can be calculated from equation (3). δ=δr(SsΦrΦrcr)/(SrΦsΦscs) Equation (3)
wherein s and r stand for the sample, i.e., ACCu2, and the reference, respectively. S denotes the intensity of the signal collected using a CCD detector, Φ is the fluorescence quantum yield, Φ is the overall fluorescence collection efficiency of the experimental apparatus, c is the number density of molecules in solution, and δr is the two-photon cross section of the reference molecule.

[3] = pH dependence of Ired/Iblue ratio; type: physicochemical; conditions: 3 μM ACCu2, 200 μM copper(II) ion, excitation 365 nm
Text: The excitation wavelength was 365 nm. […] The increase in the Ired/Iblue ratio at pH<6 can be attributed to the protonation of the nitrogen atom in the pyridine moiety as shown in [Chemical Formula 19]. On the other hand, the increase in the Ired/Iblue ratio at pH>7.0 can be attributed to the decreased copper(II) ion concentration due to the formation of Cu(OH)2. This outcome is different from that reported for the existing one-photon probe.

HeLa cells [4] = experiment: Cell viability, CCK-8 kit; type: cell-based, human; conditions: various ACCu2 concentrations
Description: (§1) HeLa human cervical carcinoma cells were acquired from the ATCC (Manassas, Va., USA). The cells were cultured in DMEM (WelGene, Inc., Seoul, Korea) supplemented with heat-inactivated 10% FBS (WelGene), penicillin (100 units/mL) and streptomycin ([…]), All the cell lines were maintained in a humidified atmosphere of 5% CO2 and 95% air at 37° C. Two days before imaging, the cells were moved and plated onto glass-bottomed dishes (MatTek), For labeling, the growth medium was removed and replaced with FBS-free DMEM. The cells were incubated with 3 μM ACCu2 for 20 minutes at 37° C., washed 3 times with FBS-free DMEM and imaged.
The viability of HeLa cells with the ACCu2 concentration was measured under the incubation condition using the CCK-8 kit (Cell Counting Kit-8, Dojindo, Japan) (FIG. 7). […] Accordingly, it can be seen that the copper(II) ion concentration in living cells can be measured with minimum interference from cytotoxicity.

HeLa cells [5] = experiment: Two-photon microscopy of ACCu2-labeled HeLa cells, copper(II) ion estimation; type: cell-based, human; conditions: for free copper(II) ion concentration: from Ired/Iblue ratio and titration curve
Text: The two curves were similar to the TPEF spectra of HeLa cells labeled with FL and IR. And, the OP-excited fluorescence (OPEF) spectra of FL and IR measured in EtOH/HEPES (9/1 v/v, pH=7.0) (see Table 1 and FIG. 1) confirmed that this solvent is a good model of the intracellular environment.
In order to investigate the utility of ACCu2 in living cells, TPM images of ACCu2-labeled HeLa cells and tissues were obtained using spectral confocal and multiphoton microscopes (Leica TCS SP2) with ×100 (NA=1.30 OIL) and ×40 (NA=0.75 DRY) objective lenses.
The TPM images were obtained with the DM IRE2 microscope (Leica) by exciting the probes with a mode-locked titanium-sapphire laser source (Coherent Chameleon, 90 MHz, 200 fs) set at a wavelength of 780 nm and an output power of 1305 mW. To obtain images at 400-650 nm, internal PMTs were used to collect signals in 8-bit unsigned 512×512 pixels at a scan rate of 400 Hz.
as §1
Ratiometric images were constructed from the TPEF intensities collected in the two channels (FIG. 9(a)-(c)). The Ired/Iblue ratio for the ACCu2-labeled HeLa cells was measured as 9.9±0.8 (FIG. 9(d)). The ratio decreased to 6.5 upon addition of copper(II) ion (200 μM) and pyrrolidine dithiocarbamate (PDTC, 100 μM) due to accumulation of copper(II) ion inside the cells, and increased to 9.8 upon treatment with ethylenediaminetetraacetic acid (EDTA, 100 μM), a […] metal on chelator that effectively removes copper(II) ion.
Since Iblue remains constant, ACCu2 according to the present disclosure can measure the Ired/Iblue ratio more accurately than the existing probe which requires the measurements of the changes in both Ired and Iblue. The free copper(II) ion concentration was calculated as 0.0±0.7 μM (FIG. 9(a)), 15±2 μM (FIG. 9(b)) and 0.0±1.9 μM (FIG. 9(c)) from the Ired/Iblue ratio and the titration curve shown in FIG. 5(b).

[6] = ACCu2-labeled HeLa cells, 750 nm TP excitation, scanning lambda mode

- photostability: TPEF intensity after continuous radiation (HeLa cells [1]): remained nearly the same
- Φδmax (two-photon action cross section) [2]: 32 GM
- pH at which Ired/Iblue ratio shows a minimum [3]: 6-7
- TPEF emission maximum, first Gaussian function (solid curve) (HeLa cells [5]; [6]): 470 nm
- TPEF emission maximum, second Gaussian function (dotted curve) (HeLa cells [5]; [6]): 582 nm
SMILES: COCCOCCOCCOc1ccc2c(ccc3cc(C(=O)N4CCN(C(=O)c5ccc(CNC(=O)c6cc7cc8ccc(N(C)C)cc8cc7oc6=O)nc5)CC4)c(=O)oc32)c1 [ACCu2]
- viability of HeLa cells (HeLa cells [4]): did not affect the viability of HeLa cells
- Ired/Iblue ratio (HeLa cells [5]; ACCu2-labeled HeLa cells, before addition of copper(II) ion): 9.9±0.8
- free copper(II) ion concentration (HeLa cells [5]; HeLa cells, FIG. 9(a)): 0.0 ± 0.7 µM
- free copper(II) ion concentration (HeLa cells [5]; HeLa cells, FIG. 9(b)): 15 ± 2 µM
- free copper(II) ion concentration (HeLa cells [5]; HeLa cells, FIG. 9(c)): 0.0 ± 1.9 µM
- Ired/Iblue ratio (HeLa cells [5]; HeLa cells, after copper(II) ion (200 μM) and PDTC (100 μM)): 6.5
- Ired/Iblue ratio (HeLa cells [5]; HeLa cells, after further treatment with EDTA (100 μM)): 9.8
